Reference: patent US20230027864A1, “COMPOSITIONS AND METHODS FOR DELIVERY OF AGENTS TO IMMUNE CELLS” (ModernaTX, Inc., priority 2018, published 2023)

Legend:
T cells [1] = assay: LNP association and GFP mRNA expression in T cells of human PBMCs; type: cell-based; conditions: third series, in vitro, FIG. 35
monocytes = assay: Sterol panel in LNPs, delivery in vivo (FIG. 40); conditions: Cmpd X/sterol/Cmpd 428 LNPs, Y-axis percentage of CD3+ cells in spleen expressing mOX40L
Method: In a second series of experiments, an additional panel of sterol compounds was tested in LNPs for monocyte delivery in vivo. The results for this panel of sterols tested for the structural lipid component of the LNP are shown in the bar graph of FIG. 40. […] The bars/lanes on the X-axis labeled 1-9 correspond to the following LNP compositions tested for mRNA delivery in vivo: Lane 1 is PBS. Lane 2 is Cmpd X/Cmpd 428, Lane 3 is Cmpd X/β sitosterol/Cmpd 428, Lane 4 is Cmpd X/β-sitosterol-d7/Cmpd 428, Lane 5 is Cmpd X/brassicasterol/Cmpd 428, Lane 6 is Cmpd X/unnamed sterol/Cmpd 428, Lane 7 is Cmpd X/Cmpd S-30/Cmpd 428, Lane S is Cmpd X/Cnpd S-32/Cmpd 428, Lane 9 is Cmpd X/Cmpd S-31/Cmpd 428.

T cells [2] = assay: LNP association and GFP mRNA expression in T cells of human PBMCs; type: cell-based; conditions: PEG lipid component of the LNP, FIG. 33
Method: In a second series of experiments, additional compounds, were tested in the LNPs for their ability to enhance delivery to T cells. For these experiments, the association of the LNP with cells and the expression of mRNA-encoding protein within the transfected cells was assessed at the cell-by-cell level. Peripheral blood mononuclear cells (PBMCs) from human donors were used. PBMCs were predominately T cells (40-60%), B cells (3-15%), and monocytes (15-35%), but also contained small numbers of other cell types. LNPs were incubated with serum or PBS for 30 minutes and then added to the PBMCs. The LNP concentration was 0.050 mg/ml, the LNP volume was 0.1 ml.
LNPs contained 0.1% Rhodamine-DOPE in addition to the other LNP components to facilitate detection. Thus, the ratios set forth in the tables below include 0.1 for the rhodamine label. For example, 50:10:10:27.9:2:0.1 AL:DSPC:chol:sterol:Cmp 428 indicates 50% amino lipid as the ionizable lipid, 10% DSPC as the phospholipid, 10% cholesterol, 27.9% phytosterol, 2% Compound 428 as the PEG lipid and 0.1% for the rhodamine-DOPE label. To prepare a non-labeled LNP, the same ratios are used except that the 0.1% rhodamine label is omitted and an additional 0.1% of structural lipid (cholesterol or cholesterol/phytosterol blend) is used (e.g., 27.9% becomes 28%).
Cells were sorted by flow cytometry into subsets based on expression of certain markers: CD3 (T cells), CD20 (B cells), and CD3-, CD20-, CD14+(Monocytes).
mRNA encoding GFP was used as a model agent to effect expression of an intracellular protein.
When conducting flow cytometry, the Y-axis was signal from the rhodamine tag on the LNP and the X-axis was the GFP signal showing expression of the protein.
The “associated” population is any rhodamine+ and/or GFP+ cell and the percent of these cells was calculated by dividing by the total number of cells. The “expression” population is any GFP+ cell and the percent of these cells was calculated by dividing by the total number of cells. The percent of associated cells expressing was obtained by dividing the % expressing cells by the % associated cells.

CD3+ T cells = assay: T cell transfection in vitro with varied LNP components, mOX40L mRNA; type: cell-based, human; conditions: as ionizable lipid or PEG lipid component, Table 23
Method: In this example, human peripheral blood mononuclear cells (PBMCs) from two different Donors (Donor 1 and Donor 2) were incubated in the presence of mRNA encoding mouse OX40L (mOX40L) (20 ng or 50 ng) encapsulated in each of the three different LNP compositions tested in Example 3. PBS was used as a negative control. Human PBMCs were incubated ex vivo with the various LNPs at 37° C. After 24 hours, cells were analyzed by flow cytometry for mOX40L protein expression in CD3+ T cells.
In this Example, LNPs were made with various lipid components and at different ratios and were tested for their ability to transfect T cells in vitro. Transfection was performed as in Example 5 using LNPs encapsulating an mRNA encoding mouse OX40L.
In a first set of experiments, phytosterol was used as the immune cell delivery potentiating lipid and other lipid constituents of the LNP were varied.

Structure (SMILES) | immune cell delivery potentiating ability in T cells, additional sterol panel (T cells [1]) | immune cell delivery potentiating ability in monocytes, additional sterol panel in vivo (monocytes) | immune cell delivery potentiating ability in T cells, PEG lipid panel (T cells [2]) | delivery to T cells with phytosterol-containing LNP (CD3+ T cells)
CC(C)[C@@H](C)/C=C/[C@@H](C)[C@H]1CC[C@H]2[C@@H]3CC=C4C[C@@H](O)CC[C@]4(C)[C@H]3CC[C@]12C [brassicasterol] | exhibited immune cell delivery potentiating ability in T cells | exhibited immune cell delivery potentiating ability in monocytes | – | –
CCCCCCCCCCCCCCCCCC(=O)OCCOCCOCCOCCOCCOCCOCCOCCOCCOCCOCCOCCOCCOCCOCCOCCOCCOCCOCCOCCOCCOCCOCCOCCOCCOCCOCCOCCOCCOCCOCCOCCOCCOCCOCCOCCOCCOCCOCCOCCOCCOCCOCCOCCOCCO [Compound 428] | – | – | exhibited immune cell delivery potentiating ability in T cells | enhanced delivery to T cells
